Patent US8153589B2, “JNK3 as a target for the treatment of angiogenesis-related diseases” (The University of North Carolina at Chapel Hill, priority 2009, dated 2012)

System: MKP7
Assay: Biotin switch assay, MKP7 nitrosylation in BAECs transfected with Flag-MKP7
Type: cell-based
Details: 50 ng/ml SDF-1alpha for 5 minutes
Description: Experiments were performed following the methods previously described by Dr. Stamler's laboratory (39). Cell lysates containing Flag or Myc-tagged MKP7 protein were treated with the indicated concentrations of GSNO followed by the addition of 2 volumes of HEN buffer and freshly prepared S-methyl methanethiosulfonate (10% v/v in N,N-dimethylformamide) and SDS (25% v/v) to final concentrations of 0.1 and 2.5%, respectively. Following frequent vortexing at 50° C. for 1 hour, proteins were precipitated with 3 volumes of acetone at −20° C. for 30 min. The proteins were recovered by centrifugation at 5,000×g for 5 min, followed by gentle rinsing of the pellet with 3×1 ml acetone. The pellets were then resuspended in 240 μl of HEN buffer containing 1% SDS. The resuspended protein was precipitated, rinsed and resuspended once more. For labeling, the blocked samples were mixed with 0.1 volume of biotin-HPDP (2.5 mg/ml in Me2SO) and 0.1 volume of HEN (control) or freshly prepared sodium Ascorbic acid in HEN buffer. […] The eluted mixture was then analyzed by SDS-PAGE, followed by immunoblotting with anti-Flag-HRP (1:5000) or antibodies.
As a first step, we investigated whether SDF-1α treatment of BAECs would result in S-nitrosylation of MKP7. […] Next we used JNK3 phosphorylation as a readout for determining whether or not SDF-1α activation of JNK3 could be inhibited by MKP7. […]

With SDF-1α as the substance, how does the “MKP7 nitrosylation in BAECs” value read?
Its value is “increased”.
